These results are taken from patent publication US10457655B2, “Compounds and compositions for inhibition of FASN” (FORMA Therapeutics, Inc., priority 2013, dated 2019).

For the first test, the target named is FASN enzyme (Homo sapiens, UniProt P49327). The experiment in a line: Enzymatic Assay for FASN Inhibitors.
FASN enzyme, sequence (P49327 whole entry): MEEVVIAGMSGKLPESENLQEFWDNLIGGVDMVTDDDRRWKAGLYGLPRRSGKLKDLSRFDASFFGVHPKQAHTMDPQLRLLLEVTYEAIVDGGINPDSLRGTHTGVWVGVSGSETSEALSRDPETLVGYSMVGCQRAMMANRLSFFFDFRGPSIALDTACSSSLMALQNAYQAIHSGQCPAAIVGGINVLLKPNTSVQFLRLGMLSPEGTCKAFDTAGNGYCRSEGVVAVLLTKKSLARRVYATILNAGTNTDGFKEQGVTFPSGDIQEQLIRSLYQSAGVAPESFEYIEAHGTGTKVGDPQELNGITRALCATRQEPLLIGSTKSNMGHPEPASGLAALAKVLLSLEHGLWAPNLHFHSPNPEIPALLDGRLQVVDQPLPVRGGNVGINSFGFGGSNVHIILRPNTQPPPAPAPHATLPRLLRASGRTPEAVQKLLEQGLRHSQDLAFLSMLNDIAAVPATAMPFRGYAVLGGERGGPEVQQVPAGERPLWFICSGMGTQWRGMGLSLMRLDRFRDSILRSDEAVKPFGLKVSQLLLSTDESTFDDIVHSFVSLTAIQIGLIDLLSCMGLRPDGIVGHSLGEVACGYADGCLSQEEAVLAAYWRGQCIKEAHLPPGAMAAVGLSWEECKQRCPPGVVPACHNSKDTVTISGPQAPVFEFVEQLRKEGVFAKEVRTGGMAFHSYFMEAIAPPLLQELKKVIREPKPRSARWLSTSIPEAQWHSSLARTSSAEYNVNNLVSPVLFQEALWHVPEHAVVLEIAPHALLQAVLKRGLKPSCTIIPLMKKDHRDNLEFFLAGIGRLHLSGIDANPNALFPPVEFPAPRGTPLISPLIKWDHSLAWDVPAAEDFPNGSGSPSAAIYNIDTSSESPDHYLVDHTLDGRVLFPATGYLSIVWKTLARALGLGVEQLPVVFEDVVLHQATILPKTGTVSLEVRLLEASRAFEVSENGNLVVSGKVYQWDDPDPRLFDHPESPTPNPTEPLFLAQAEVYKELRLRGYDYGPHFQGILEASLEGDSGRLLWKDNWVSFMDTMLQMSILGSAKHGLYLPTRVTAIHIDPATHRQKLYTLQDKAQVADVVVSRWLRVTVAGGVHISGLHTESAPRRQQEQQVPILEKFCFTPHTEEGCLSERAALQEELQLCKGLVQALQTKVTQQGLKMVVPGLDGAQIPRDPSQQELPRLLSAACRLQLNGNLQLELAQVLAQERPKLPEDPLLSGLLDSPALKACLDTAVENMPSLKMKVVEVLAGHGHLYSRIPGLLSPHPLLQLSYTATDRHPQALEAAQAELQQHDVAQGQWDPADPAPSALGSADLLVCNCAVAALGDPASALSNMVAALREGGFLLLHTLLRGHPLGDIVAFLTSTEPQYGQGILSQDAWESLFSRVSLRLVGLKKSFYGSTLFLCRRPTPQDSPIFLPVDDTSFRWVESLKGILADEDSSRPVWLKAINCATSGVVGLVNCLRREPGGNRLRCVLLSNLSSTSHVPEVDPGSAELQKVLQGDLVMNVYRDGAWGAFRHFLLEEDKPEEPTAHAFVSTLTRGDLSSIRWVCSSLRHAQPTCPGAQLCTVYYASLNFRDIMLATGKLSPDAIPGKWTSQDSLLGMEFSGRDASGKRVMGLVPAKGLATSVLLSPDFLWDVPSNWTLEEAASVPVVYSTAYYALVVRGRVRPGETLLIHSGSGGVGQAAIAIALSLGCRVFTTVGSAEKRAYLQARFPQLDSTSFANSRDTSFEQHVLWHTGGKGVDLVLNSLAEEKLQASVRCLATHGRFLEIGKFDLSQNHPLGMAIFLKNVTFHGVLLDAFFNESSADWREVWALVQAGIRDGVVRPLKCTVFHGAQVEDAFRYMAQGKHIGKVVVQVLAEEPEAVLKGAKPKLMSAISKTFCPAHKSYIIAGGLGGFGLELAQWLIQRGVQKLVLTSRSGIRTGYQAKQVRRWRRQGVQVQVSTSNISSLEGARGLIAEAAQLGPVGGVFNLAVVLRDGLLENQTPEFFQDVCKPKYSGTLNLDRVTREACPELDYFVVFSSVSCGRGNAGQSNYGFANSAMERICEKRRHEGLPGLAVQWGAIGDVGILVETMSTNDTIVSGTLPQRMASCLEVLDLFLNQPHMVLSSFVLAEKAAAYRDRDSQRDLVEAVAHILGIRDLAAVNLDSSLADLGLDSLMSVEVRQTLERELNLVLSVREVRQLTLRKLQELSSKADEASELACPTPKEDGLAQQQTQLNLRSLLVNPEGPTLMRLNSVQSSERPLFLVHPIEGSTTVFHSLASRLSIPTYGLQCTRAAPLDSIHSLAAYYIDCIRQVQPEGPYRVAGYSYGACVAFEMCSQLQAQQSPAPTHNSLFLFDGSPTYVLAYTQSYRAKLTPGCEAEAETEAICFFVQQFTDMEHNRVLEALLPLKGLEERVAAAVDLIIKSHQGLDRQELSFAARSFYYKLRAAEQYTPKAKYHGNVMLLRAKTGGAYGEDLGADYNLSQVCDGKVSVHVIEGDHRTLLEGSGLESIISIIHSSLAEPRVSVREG
Conditions: not given
Format: biochemical. The gist of the method: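 40 nM FASN preincubated with compound 60 min at 25° C in HEPES pH 7.3 buffer with 0.04% Triton X-100. Then 20 μM acetyl-CoA, 60 μM malonyl-CoA and 100 μM NADPH added for 90 min, quenched with CPM thiol probe; fluorescence 360/530 nm, IC50 by four-parameter fit.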
As usually defined, the IC50 is the concentration at which inhibition is half-maximal. Low readings indicate inhibition by little substance, high ones a need for much substance. On to `O=C(c1ccc(N2CCc3[nH]c4ccccc4c3C2)cc1)N1CCN(C(=O)C2(O)CC2)CC1` [1-[4-(4-{1H,2H,3H,4H,5H-pyrido[4,3-b]indol-2-yl}benzoyl)piperazine-1-carbonyl]cyclopropan-1-ol], for which the IC50 was less than 0.5 µM.

In turn, `Cn1cc2ccc(-c3ccc(C(=O)N4CCN(C(=O)C5(O)CC5)CC4)c(Cl)c3)cc2n1` [1-{4-[2-chloro-4-(2-methyl-2H-indazol-6-yl)benzoyl]piperazine-1-carbonyl}cyclopropan-1-ol] yielded an IC50 of less than 0.5 µM. Consider `Cn1cc(-c2ccc(-c3ccc(C(=O)N4CCN(C(=O)C5(O)CC5)CC4)cc3)cc2)cn1` [1-(4-{4-[4-(1-methyl-1H-pyrazol-4-yl)phenyl]benzoyl}piperazine-1-carbonyl)cyclopropan-1-ol], for which the IC50 is less than 0.5 µM. Still for that read-out and setting: under `Cn1cc2ccc(-c3ccc(C(=O)N4CCN(C(=O)C5(O)CC5)CC4)cc3F)cc2n1` [1-{4-[3-fluoro-4-(2-methyl-2H-indazol-6-yl)benzoyl]piperazine-1-carbonyl}cyclopropan-1-ol] stands less than 0.5 µM. On the same count and under the same terms, under `O=C(c1ccc(-c2ncc3cc(F)ccc3n2)cc1)N1CCN(C(=O)C2(O)CC2)CC1` [1-{4-[4-(6-fluoroquinazolin-2-yl)benzoyl]piperazine-1-carbonyl}cyclopropan-1-ol] stands less than 0.5 µM; under `Cc1c2ccccc2nn1-c1ccc(C(=O)N2CCN(C(=O)C3(O)CC3)CC2)cc1` [1-{4-[4-(3-methyl-2H-indazol-2-yl)benzoyl]piperazine-1-carbonyl}cyclopropan-1-ol], less than 0.5 µM; under `CC(C)(C#N)c1cccc(-c2ccc(C(=O)N3CCN(C(=O)C4(O)CC4)CC3)cc2)c1` [2-(3-{4-[4-(1-hydroxycyclopropanecarbonyl)piperazine-1-carbonyl]phenyl}phenyl)-2-methylpropanenitrile], less than 0.5 µM. The same measure, in the same setting: under `Cc1cc2ccccc2n1-c1ccc(C(=O)N2CCN(C(=O)C3(O)CC3)CC2)cc1` [(4-(1-hydroxycyclopropane-1-carbonyl)piperazin-1-yl)(4-(2-methyl-1H-indol-1-yl)phenyl)methanone] stands less than 0.5 µM; under `Nc1cc(-c2cccc(-c3ccc(C(=O)N4CCN(C(=O)C5(O)CC5)CC4)cc3)c2)n[nH]1` [1-(4-{4-[3-(5-amino-1H-pyrazol-3-yl)phenyl]benzoyl}piperazine-1-carbonyl)cyclopropan-1-ol], less than 0.5 µM; under `Cc1cc2ccccc2n1-c1ccc(C(=O)N2CCN(C(=O)C3(N)CC3)CC2)c(F)c1` [1-{4-[2-fluoro-4-(2-methyl-1H-indol-1-yl)benzoyl]piperazine-1-carbonyl}cyclopropan-1-amine], less than 0.5 µM. As to `O=C(c1ccc(-c2ccc(Cl)cc2F)cc1)N1CCN(C(=O)C2(O)CC2)CC12CC2` [1-{4-[4-(4-chloro-2-fluorophenyl)benzoyl]-4,7-diazaspiro[2.5]octane-7-carbonyl}cyclopropan-1-ol], the IC50 is less than 0.5 µM. On the same count and under the same terms, the same measure for `O=C(c1ccc(-c2n[nH]c3c(F)cccc23)cc1)N1CCN(C(=O)C2(O)CC2)CC1` [1-{4-[4-(7-fluoro-1H-indazol-3-yl)benzoyl]piperazine-1-carbonyl}cyclopropan-1-ol]: less than 0.5 µM. Still for that read-out and setting: under `C[C@H]1CN(C(=O)c2ccc(-c3nc4ccc(Cl)cc4o3)cc2)CCN1C(=O)C1(O)CC1` [1-[(2S)-4-[4-(6-chloro-1,3-benzoxazol-2-yl)benzoyl]-2-methylpiperazine-1-carbonyl]cyclopropan-1-ol] stands less than 0.5 µM. On the same count and under the same terms, the same measure for `C[C@H]1CN(C(=O)c2ccc(-c3ccc4cnn(C)c4c3)cc2)CCN1C(=O)C1(O)CC1` [1-[(2S)-2-methyl-4-[4-(1-methyl-1H-indazol-6-yl)benzoyl]piperazine-1-carbonyl]cyclopropan-1-ol]: less than 0.5 µM; for `Cn1ncc2ccc(-c3ccc(C(=O)N4CCN(C(=O)C5(N)CCC5)CC4)c(F)c3)cc21` [1-{4-[2-fluoro-4-(1-methyl-1H-indazol-6-yl)benzoyl]piperazine-1-carbonyl}cyclobutan-1-amine]: less than 0.5 µM; for `O=C(c1ccc(-c2cccc3nsnc23)cc1)N1CCN(C(=O)C2(O)CC2)CC1`: less than 0.5 µM.

`O=C(c1ccc(-c2nc3ccc(Cl)cc3o2)c(F)c1)N1CCN(C(=O)C2(O)CC2)CC1` [1-{4-[4-(6-chloro-1,3-benzoxazol-2-yl)-3-fluorobenzoyl]piperazine-1-carbonyl}cyclopropan-1-ol] yielded an IC50 of less than 0.5 µM. Same read-out and setting: under `Cn1ncc2cc(-c3ccc(C(=O)N4CCN(C(=O)C5(O)CC5)CC4)cc3)ccc21` [1-[(4-{[4-(1-methyl-1H-indazol-5-yl)phenyl]carbonyl}piperazin-1-yl)carbonyl]cyclopropan-1-ol] stands less than 0.5 µM; under `C[C@H]1CN(C(=O)c2ccc(-c3nc4ccc(F)cc4o3)cc2)CCN1C(=O)C1(O)CC1`, less than 0.5 µM.

Staying with this test, now noted: FASN enzymatic assay; Table 2-2.
Compound `O=C(c1ccc(-c2cc(C(F)(F)F)ccc2Cl)cc1)N1CCN(C(=O)C2(O)CC2)CC1` [1-{[4-({4-[2-chloro-5-(trifluoromethyl)phenyl]phenyl}carbonyl)piperazin-1-yl]carbonyl}cyclopropan-1-ol] gave an IC50 of 0.5 to 5 µM.

Consider `O=C(c1ccc(-c2cn3ccnc3cn2)cc1)N1CCN(C(=O)C2(O)CC2)CC1` [1-({4-[(4-{imidazo[1,2-a]pyrazin-6-yl}phenyl)carbonyl]piperazin-1-yl}carbonyl)cyclopropan-1-ol], for which the IC50 lay within 0.5 to 5 µM. Same read-out and setting: the same measure for `COc1ccc2[nH]c(-c3ccc(C(=O)N4CCN(C(=O)C5(O)CC5)CC4)cc3)nc2c1` [1-[(4-{[4-(5-methoxy-1H-1,3-benzodiazol-2-yl)phenyl]carbonyl}piperazin-1-yl)carbonyl]cyclopropan-1-ol]: 0.5 to 5 µM; for `O=C(c1ccc(-c2ccc3nncn3n2)cc1)N1CCN(C(=O)C2(O)CC2)CC1`: 0.5 to 5 µM; for `O=C(c1ccc(-c2ccc3[nH]c(=O)oc3c2)cc1)N1CCN(C(=O)C2(O)CC2)CC1` [6-[4-({4-[(1-hydroxycyclopropyl)carbonyl]piperazin-1-yl}carbonyl)phenyl]-2,3-dihydro-1,3-benzoxazol-2-one]: 0.5 to 5 µM. Same read-out and setting: the same measure for `COc1cccc(-c2ccc(C(=O)N3CCN(C(=O)C4(O)CC4)CC3)cc2)c1F` [1-[(4-{[4-(2-fluoro-3-methoxyphenyl)phenyl]carbonyl}piperazin-1-yl)carbonyl]cyclopropan-1-ol]: 0.5 to 5 µM. Same read-out and setting: the same measure for `O=C(c1ncc(-c2ccc3ncccc3c2)cn1)N1CCN(C(=O)C2(O)CC2)CC1` [1-[(4-{[5-(quinolin-6-yl)pyrimidin-2-yl]carbonyl}piperazin-1-yl)carbonyl]cyclopropan-1-ol]: 0.5 to 5 µM; for `O=C(c1ccc(-c2cccc(C(F)(F)F)c2F)cc1)N1CCN(C(=O)C2(O)CC2)CC1` [1-{[4-({4-[2-fluoro-3-(trifluoromethyl)phenyl]phenyl}carbonyl)piperazin-1-yl]carbonyl}cyclopropan-1-ol]: 0.5 to 5 µM.

The test is the same for the next values; noted with them: FASN enzymatic assay; Table 2-3.
`O=C(c1cccc(Oc2ccccc2)c1)N1CCN(C(=O)C2(O)CC2)CC1` [1-({4-[(3-phenoxyphenyl)carbonyl]piperazin-1-yl}carbonyl)cyclopropan-1-ol] had an IC50 not below 5 µM.

As for `O=C(c1ccc(-c2cn3cc(F)ccc3n2)cc1)N1CCN(C(=O)C2(O)CC2)CC1` [1-({4-[(4-{6-fluoroimidazo[1,2-a]pyridin-2-yl}phenyl)carbonyl]piperazin-1-yl}carbonyl)cyclopropan-1-ol], the IC50 was not below 5 µM.
